{
  "source": "patent US20080039508A1",
  "about": "“Treatment Of Tumours” (AQ+PLC, priority 2004, published 2008)",
  "data": [
    {"smiles": "Oc1cccc2cccnc12", "note": "[8-hydroxyquinoline]", "values": [
      {"measurement": "solubility in aqueous solution", "result": "generally insoluble or only poorly soluble"}
    ]}
  ]
}
